Reference: patent US5688507A, “Methods and compositions for inhibiting thrombogenesis” (Hamilton Civic Hospitals Research Development, Inc., priority 1995, dated 1997)

Key:
[1] = system: fibrin I (desAA fibrin); assay: Solid-phase binding of 125I-thrombin to fibrin-coated microtiter wells (ovalbumin-coated wells as non-specific control); settings: increasing concentrations, 2 h at 37° C., ovalbumin-well binding subtracted (FIG. 4)
Description: To examine the ability of various agents to displace thrombin from fibrin, a solid-phase system was developed wherein fibrin was immobilized on the surface of a microtiter plate well. Radiolabeled thrombin was then bound to the fibrin-coated surface, and after washing, the ability of various agents to displace the bound thrombin was evaluated. In this model, the binding of thrombin to immobilized ovalbumin serves as an index of nonspecific binding. The details of the model are as follows: after adding 100 μl of fibrinogen or ovalbumin (each at a concentration of 1 mg/ml) to the wells of microtiter plate, the plates were incubated for 18 hours at 4° C. The wells were then washed three times with 250 μl aliquots of phosphate buffered saline, pH 7.4, containing 0.1% ovalbumin and 6 mg/ml PEG 8,000 (POP buffer). Based on preliminary studies using radiolabeled fibrinogen or ovalbumin, each well bound 1.3±0.2 μg of fibrinogen, or 1.0±0.1 μg of ovalbumin. […] The reptilase completely converted the immobilized fibrinogen to fibrin I because quantitative amounts of fibrinopeptide A (2 mol fibrinopeptide A/mol of bound fibrinogen) was recovered in the supernatant buffer. […] At the end of the incubation period, the wells were washed three times and then counted to determine the concentration of thrombin bound to the fibrin-coated (+) or ovalbumin-coated (.largecircle.) wells (FIG. 4). […]

[2] = system: fibrin; settings: stated without experiment; cited from earlier work

specific binding to fibrin-coated wells [1]: binds to fibrin in a saturable manner
Substance: thrombin
native binding affinity between fibrin and thrombin in thrombus [2]: about 5×10^-5 M^-1
